Results on 17 compounds are retold here after BindingDB's records for patent US20260062376 (Research Triangle Institute, 2026).

In general, IC50 refers to the concentration at which inhibition is half-maximal. Read a high IC50 as lower potency.

Chain of Cannabinoid receptor 1 (P47746 whole entry): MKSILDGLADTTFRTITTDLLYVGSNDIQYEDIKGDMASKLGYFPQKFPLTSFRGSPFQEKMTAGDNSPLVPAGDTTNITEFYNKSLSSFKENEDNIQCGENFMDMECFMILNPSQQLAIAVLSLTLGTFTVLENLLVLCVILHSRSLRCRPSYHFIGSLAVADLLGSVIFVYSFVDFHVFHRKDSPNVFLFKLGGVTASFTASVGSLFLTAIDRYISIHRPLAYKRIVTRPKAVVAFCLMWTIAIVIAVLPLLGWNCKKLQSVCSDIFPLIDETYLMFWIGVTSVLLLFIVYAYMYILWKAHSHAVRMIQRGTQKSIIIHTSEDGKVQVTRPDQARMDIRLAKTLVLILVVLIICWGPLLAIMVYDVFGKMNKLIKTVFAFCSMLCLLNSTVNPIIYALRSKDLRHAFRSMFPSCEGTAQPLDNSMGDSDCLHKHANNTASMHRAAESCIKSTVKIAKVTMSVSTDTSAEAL

The target in the experiment is Cannabinoid receptor 1 (Mus musculus, UniProt P47746). Nature of the experiment: [35S]GTPγS Binding Assay. The protocol:
For receptor signaling, membranes (10 μg protein) from either ICR mouse cerebellum mice (6-8 weeks old; Enviga International, Indianapolis, Indiana, United States of America) or HEK cells stably expressing CB1 receptor were preincubated in assay buffer for 10 min with 3 units/ml adenosine deaminase then incubated for 60 min at 30° C. with 30 μM GDP and 0.1 nM [35S]GTPγS (Perkin Elmer Life Sciences, Boston, Massachusetts, United States of America). Non-specific binding was determined by adding 30 μM unlabeled GTPγS.
Background: GTPγS is a poorly hydrolysed GTP analogue; its binding reports G protein activation.
Regarding `O=c1c(NCCc2ccccc2F)c(Nc2ccc(Cl)cc2)c1=O` [US20260062376, Compound 24], the IC50 amounted to 661 nM.

In the case of `O=c1c(NCCc2ccc(Cl)cc2Cl)c(Nc2ccc(Cl)cc2)c1=O` [US20260062376, Compound 44], the IC50 was determined as 525 nM.

`O=c1c(NCCc2ccc(Cl)c(Cl)c2)c(Nc2ccc(Cl)cc2)c1=O` [US20260062376, Compound 41]: the IC50 is 295 nM.

In the case of `Cc1ccc(CCNc2c(Nc3ccc(Cl)cc3)c(=O)c2=O)cc1C` [US20260062376, Compound 42], the IC50 came to 331 nM.

The compound `CN(C)c1cccc(CCNc2c(Nc3ccc(Cl)cc3)c(=O)c2=O)c1` [US20260062376, Compound 26] came in with an IC50 of 1100 nM.

Compound `O=c1c(NCCc2cccs2)c(Nc2ccc(Cl)cc2)c1=O` [US20260062376, Compound 39] yielded an IC50 of 1350 nM.

As to `O=c1c(NCCc2ccc(Br)cc2)c(Nc2ccc(Cl)cc2)c1=O` [US20260062376, Compound 38], the IC50 is 871 nM.

Regarding `Cc1cccc(CCNc2c(Nc3ccc(Cl)cc3)c(=O)c2=O)c1` [US20260062376, Compound 14], the IC50 is 166 nM.

Compound `O=c1c(NCCc2ccc(Cl)cc2)c(Nc2ccc(Cl)cc2)c1=O` [US20260062376, Compound 13] had an IC50 of 275 nM.

`O=c1c(NCCc2cccc(O)c2)c(Nc2ccc(Cl)cc2)c1=O` [US20260062376, Compound 43] gave an IC50 of 4790 nM.

With `Cc1ccc(CCNc2c(Nc3ccc(Cl)cc3)c(=O)c2=O)cc1` [US20260062376, Compound 15], the concentration for half-maximal inhibition (IC50) was 81.3 nM.

The compound `O=c1c(NCCc2cccc(F)c2)c(Nc2ccc(Cl)cc2)c1=O` [US20260062376, Compound 25] showed an IC50 of 240 nM.

For the compound `CCN(CC)c1ccc(CCNc2c(Nc3ccc(Cl)cc3)c(=O)c2=O)cc1` [US20260062376, Compound 48], the IC50 is 468 nM.

For the compound `O=c1c(NCCc2cccc(Cl)c2)c(Nc2ccc(Cl)cc2)c1=O` [US20260062376, Compound 7], the IC50 is 229 nM.

The compound `O=c1c(NCCc2ccccn2)c(Nc2ccc(Cl)cc2)c1=O` [US20260062376, Compound 36] displayed an IC50 of 1780 nM.

For `CN(C)c1ccc(CCNc2c(Nc3ccc(Cl)cc3)c(=O)c2=O)cc1` [US20260062376, Compound 27], the 50% inhibitory concentration (IC50) worked out at 40.7 nM.

`Cc1ccccc1CCNc1c(Nc2ccc(Cl)cc2)c(=O)c1=O` [US20260062376, Compound 35] came in with an IC50 of 2690 nM.
